Patent publication US20100003246A1, “Novel heterocyclic compounds and uses therof” (priority 2008, published 2010)

Biological target: T1, b-Raf(V600E) (Homo sapiens, UniProt P15056, V600E)
T1 construct: made in house
Experiment: Raf/Mek Amplified Luminescence Proximity Homogeneous Assay (Alpha Screen), b-Raf(V600E)
Assay type: biochemical
Settings: mutant b-Raf(V600E), read-out: mut-b-RAF (IC50 in uM)
How it was run: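 Active b-Raf(V600E) (~4 pM) pre-incubated 60 min at room temperature with compound and kinase-dead biotinylated Mek (~10 nM) in Tris pH 7.5, MgCl2, BSA, DTT; ATP-started reaction ran 3 h, EDTA-stopped. Phospho-MEK detected by anti-p-MEK AlphaScreen luminescence; IC50 by non-linear regression.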

T1 sequence (P15056 whole entry V600E): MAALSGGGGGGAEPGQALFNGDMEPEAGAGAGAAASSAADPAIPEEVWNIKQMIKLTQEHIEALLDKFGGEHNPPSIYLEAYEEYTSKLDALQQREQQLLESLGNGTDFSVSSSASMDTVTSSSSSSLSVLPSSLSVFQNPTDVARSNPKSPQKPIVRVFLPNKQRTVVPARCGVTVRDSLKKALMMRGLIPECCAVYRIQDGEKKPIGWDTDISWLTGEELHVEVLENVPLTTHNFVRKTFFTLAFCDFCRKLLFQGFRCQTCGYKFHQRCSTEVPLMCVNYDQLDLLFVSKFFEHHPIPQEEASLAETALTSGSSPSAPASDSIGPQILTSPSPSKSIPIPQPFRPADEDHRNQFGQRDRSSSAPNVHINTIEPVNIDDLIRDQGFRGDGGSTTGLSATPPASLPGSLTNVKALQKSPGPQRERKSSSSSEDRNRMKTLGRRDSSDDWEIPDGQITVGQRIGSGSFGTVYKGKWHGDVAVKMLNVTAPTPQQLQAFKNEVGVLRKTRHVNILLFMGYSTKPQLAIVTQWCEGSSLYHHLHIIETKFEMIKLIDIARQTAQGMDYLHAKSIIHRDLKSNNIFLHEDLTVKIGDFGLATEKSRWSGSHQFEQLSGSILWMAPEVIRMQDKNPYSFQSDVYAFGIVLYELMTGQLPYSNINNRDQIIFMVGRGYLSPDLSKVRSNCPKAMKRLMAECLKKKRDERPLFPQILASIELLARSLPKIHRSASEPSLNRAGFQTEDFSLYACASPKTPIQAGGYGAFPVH

Structure (SMILES)	IC50 [µM]
COc1cc(-c2nc(C(C)(C)C)[nH]c2-c2ccnc(N[C@@H]3CCN(S(C)(=O)=O)C3)n2)cnc1N [Compound 203, (R)-4-(4-(6-amino-5-methoxypyridin-3-yl)-2-tert-butyl-1H-imidazol-5-yl)-N-(1-(methylsulfonyl)pyrrolidin-3-yl)pyrimidin-2-amine]	0.0035
COCC(=O)NC[C@H](C)Nc1nccc(-c2nc(C(C)(C)C)[nH]c2-c2cnc(N)c(OC)c2)n1 [Compound 204, (S)-N-(2-(4-(5-(6-amino-5-methoxypyridin-3-yl)-2-tert-butyl-1H-imidazol-4-yl)pyrimidin-2-ylamino)propyl)-2-methoxyacetamide]	0.0008
COCC(=O)N[C@@H](C)CNc1nccc(-c2[nH]c(C(C)(C)C)nc2-c2cnc(N)c(OC)c2)n1 [Compound 205, (S)-N-(1-(4-(4-(6-amino-5-methoxypyridin-3-yl)-2-tert-butyl-1H-imidazol-5-yl)pyrimidin-2-ylamino)propan-2-yl)-2-methoxyacetamide]	0.0004
COc1cc(-c2nc(C(C)(C)C)[nH]c2-c2ccnc(NC[C@H](C)NC(=O)C(F)(F)F)n2)cnc1N [Compound 206, (S)-N-(1-(4-(4-(6-amino-5-methoxypyridin-3-yl)-2-tert-butyl-1H-imidazol-5-yl)pyrimidin-2-ylamino)propan-2-yl)-2,2,2-trifluoroacetamide]	0.0003
COc1cc(-c2[nH]c(C(C)(C)C)nc2-c2ccnc(N[C@@H](C)CNC(=O)[C@H](C)OC)n2)cnc1N [Compound 207, (S)-N-((S)-2-(4-(5-(6-amino-5-methoxypyridin-3-yl)-2-tert-butyl-1H-imidazol-4-yl)pyrimidin-2-ylamino)propyl)-2-methoxypropanamide]	0.0158
COc1cc(-c2[nH]c(C(C)(C)C)nc2-c2ccnc(N[C@@H](C)CNC(=O)[C@@H](C)OC)n2)cnc1N [Compound 208, (R)-N-((S)-2-(4-(5-(6-amino-5-methoxypyridin-3-yl)-2-tert-butyl-1H-imidazol-4-yl)pyrimidin-2-ylamino)propyl)-2-methoxypropanamide]	0.0014
COc1cc(-c2nc(C(C)(C)C)[nH]c2-c2ccnc(NCC(C)C)n2)cnc1N [Compound 209, 4-(4-(6-amino-5-methoxypyridin-3-yl)-2-tert-butyl-1H-imidazol-5-yl)-N-isobutylpyrimidin-2-amine]	0.0001
CNc1nccc(-c2[nH]c(C(C)(C)C)nc2-c2cnc(N)c(OC)c2)n1 [Compound 210, 4-(4-(6-amino-5-methoxypyridin-3-yl)-2-tert-butyl-1H-imidazol-5-yl)-N-methylpyrimidin-2-amine]	0.0001
CCNc1nccc(-c2[nH]c(C(C)(C)C)nc2-c2cnc(N)c(OC)c2)n1 [Compound 211, 4-(4-(6-amino-5-methoxypyridin-3-yl)-2-tert-butyl-1H-imidazol-5-yl)-N-ethylpyrimidin-2-amine]	0.0001
CCCNc1nccc(-c2[nH]c(C(C)(C)C)nc2-c2cnc(N)c(OC)c2)n1 [Compound 212, 4-(4-(6-amino-5-methoxypyridin-3-yl)-2-tert-butyl-1H-imidazol-5-yl)-N-propylpyrimidin-2-amine]	0.0001
COc1cc(-c2nc(C(C)(C)C)[nH]c2-c2ccnc(NCC(F)(F)F)n2)cnc1N [Compound 213, 4-(4-(6-amino-5-methoxypyridin-3-yl)-2-tert-butyl-1H-imidazol-5-yl)-N-(2,2,2-trifluoroethyl)pyrimidin-2-amine]	0.0001
COCC(=O)N[C@@H](C)CNc1nccc(-c2oc(-c3ccc(F)cc3)nc2-c2cnc(N)c(OC)c2)n1 [Compound 214, (S)-N-(1-(4-(4-(6-amino-5-methoxypyridin-3-yl)-2-(4-fluorophenyl)oxazol-5-yl)pyrimidin-2-ylamino)propan-2-yl)-2-methoxyacetamide]	0.001
COc1cc(-c2nc(C(C)(C)C)[nH]c2-c2ccnc(NCc3ccc(C(F)(F)F)cc3)n2)cnc1N [Compound 215, 4-(4-(6-amino-5-methoxypyridin-3-yl)-2-tert-butyl-1H-imidazol-5-yl)-N-(4-(trifluoromethyl)benzyl)-pyrimidin-2-amine]	0.0005
COCC(=O)N[C@@H](C)CNc1nccc(-c2[nH]c(-c3ccc(C(F)(F)F)cc3F)nc2-c2cnc(N)c(OC)c2)n1 [Compound 216, (S)-N-(1-(4-(6-(6-amino-5-methoxypyridin-3-yl)-2-(2-fluoro-4-(trifluoromethyl)phenyl)-1H-imidazol-5-yl)pyrimidin-2-ylamino)propan-2-yl)-2-methoxyacetamide]	0.0002
COCC(=O)N[C@@H](C)CNc1nccc(-c2oc(-c3ccc(F)cc3)nc2-c2cnc(N)c(OC)n2)n1 [Compound 217, (S)-N-(1-(4-(4-(5-amino-6-methoxypyrazin-2-yl)-2-(4-fluorophenyl)oxazol-5-yl)pyrimidin-2-ylamino)propan-2-yl)-2-methoxyacetamide]	0.002
COc1cc(-c2nc(C(C)(C)C)[nH]c2-c2ccnc(NC[C@H](C)NC(C)=O)n2)cnc1N [Compound 218, (S)-N-(1-(4-(4-(6-amino-5-methoxypyridin-3-yl)-2-tert-butyl-1H-imidazol-5-yl)pyrimidin-2-ylamino)propan-2-yl)acetamide]	0.0003

Structure (SMILES)	IC50 [µM]
CNC(=O)N[C@@H](C)CNc1nccc(-c2[nH]c(C(C)(C)C)nc2-c2cnc(N)c(OC)c2)n1 [Compound 219, (S)-1-(1-(4-(4-(6-amino-5-methoxypyridin-3-yl)-2-tert-butyl-1H-imidazol-5-yl)pyrimidin-2-ylamino)propan-2-yl)-3-methylurea]	0.0003
COc1cc(-c2nc(-c3ccc(F)cc3)oc2-c2ccnc(NCC(C)C)n2)cnc1N [Compound 220, 4-(4-(6-amino-5-methoxypyridin-3-yl)-2-(4-fluorophenyl)oxazol-5-yl)-N-isobutylpyrimidin-2-amine]	0.002
COc1cc(-c2nc(C(C)(C)C)[nH]c2-c2ccnc(Nc3ccc(C(F)(F)F)cc3)n2)cnc1N [Compound 221, 4-(4-(6-amino-5-methoxypyridin-3-yl)-2-tert-butyl-1H-imidazol-5-yl)-N-(4-(trifluoromethyl)phenyl)-pyrimidin-2-amine]	0.0002
COc1cc(-c2nc(C(C)(C)C)[nH]c2-c2ccnc(Nc3ccc(Cl)c(C(F)(F)F)c3)n2)cnc1N [Compound 222, 4-(4-(6-amino-5-methoxypyridin-3-yl)-2-tert-butyl-1H-imidazol-5-yl)-N-(4-chloro-3-(trifluoromethyl)phenyl) pyrimidin-2-amine]	0.0002
COc1nc(-c2nc(-c3ccc(C(F)(F)F)cc3)oc2-c2ccnc(NCC(C)C)n2)cnc1N [Compound 223, 4-(4-(5-amino-6-methoxypyrazin-2-yl)-2-(4-(trifluoromethyl)phenyl)oxazol-5-yl)-N-isobutylpyrimidin-2-amine]	0.011
COc1cc(-c2nc(-c3ccc(C(F)(F)F)cc3)oc2-c2ccnc(NCC(C)C)n2)cnc1N [Compound 224, 4-(4-(6-amino-5-methoxypyridin-3-yl)-2-(4-(trifluoromethyl)phenyl)oxazol-5-yl)-N-isobutylpyrimidin-2-amine]	0.014
COc1cc(-c2nc(C(C)(C)C)[nH]c2-c2ccnc(NC[C@H](C)NC(=O)[C@@H](C)OC)n2)cnc1N [Compound 225, (R)-N-((S)-1-(4-(4-(6-amino-5-methoxypyridin-3-yl)-2-tert-butyl-1H-imidazol-5-yl)pyrimidin-2-ylamino)propan-2-yl)-2-methoxypropanamide]	0.0013
COCC(=O)N[C@@H](C)CNc1nccc(-c2[nH]c(C(C)C)nc2-c2cnc(N)c(OC)c2)n1 [Compound 226, (S)-N-(1-(4-(4-(6-amino-5-methoxypyridin-3-yl)-2-isopropyl-1H-imidazol-5-yl)pyrimidin-2-ylamino)propan-2-yl)-2-methoxyacetamide]	0.0003
COCC(=O)N[C@@H](C)CNc1nccc(-c2[nH]c(C(C)C)nc2-c2cnc(N)c(OC)n2)n1 [Compound 227, (S)-N-(1-(4-(4-(5-amino-6-methoxypyrazin-2-yl)-2-isopropyl-1H-imidazol-5-yl)pyrimidin-2-ylamino)propan-2-yl)-2-methoxyacetamide]	0.0003
COc1cc(-c2nc(C(C)(C)C)n(C)c2-c2ccnc(NCC(C)C)n2)cnc1N [Compound 228, 4-(4-(6-amino-5-methoxypyridin-3-yl)-2-tert-butyl-1-methyl-1H-imidazol-5-yl)-N-isobutylpyrimidin-2-amine]	0.0006
COCC(=O)N[C@@H](C)CNc1nccc(-c2oc(-c3ccc(C(F)(F)F)cc3)nc2-c2cnc(N)c(OC)n2)n1 [Compound 229, (S)-N-(1-(4-(4-(5-amino-6-methoxypyrazin-2-yl)-2-(4-(trifluoromethyl)phenyl)-oxazol-5-yl)pyrimidin-2-ylamino)propan-2-yl)-2-methoxyacetamide]	0.003
COc1cc(Nc2nccc(-c3[nH]c(C(C)(C)C)nc3-c3cnc(N)c(OC)c3)n2)ccn1 [Compound 230, 4-(4-(6-amino-5-methoxypyridin-3-yl)-2-tert-butyl-1H-imidazol-5-yl)-N-(2-methoxypyridin-4-yl)pyrimidin-2-amine]	0.0001
COc1cc(Nc2nccc(-c3[nH]c(C(C)C)nc3-c3cnc(N)c(OC)c3)n2)ccn1 [Compound 231, 4-(4-(6-amino-5-methoxypyridin-3-yl)-2-isopropyl-1H-imidazol-5-yl)-N-(2-methoxypyridin-4-yl)pyrimidin-2-amine]	0.0002
COc1cc(-c2nc(-c3ccc(C(F)(F)F)cc3)oc2-c2ccnc(NCC(C)C)c2)cnc1N [Compound 232, 4-(4-(6-amino-5-methoxypyridin-3-yl)-2-(4-(trifluoromethyl)phenyl)-oxazol-5-yl)-N-isobutylpyridin-2-amine]	0.0084
COc1cc(Nc2nccc(-c3[nH]c(C(C)(C)C)nc3-c3cnc4[nH]cc(Cl)c4c3)n2)ccn1 [Compound 233, 4-(2-tert-butyl-4-(3-chloro-1H-pyrrolo[2,3-b]pyridin-5-yl)-1H-imidazol-5-yl)-N-(2-methoxypyridin-4-yl)pyrimidin-2-amine]	0.0003
